Laboratory results published in patent US12570642B2, “GLP-IR modulating compounds” (Gilead Sciences, Inc., priority 2021, dated 2026).

Molecular target: GLP-1R (Homo sapiens, UniProt P43220)
Assay: GLP-1R Activation - cAMP Assay
Type: cell-based
Conditions: cAMP increase in CHO cells stably expressing GLP-1R; each compound run on one of the two cAMP assays (Assay 1 or Assay 2, not specified)
Method in brief: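 CHO cells stably expressing GLP-1R, plated at 1,000 cells/well overnight, then equilibrated 1 h in HBSS with 20 mM Hepes and 0.1% BSA. Agonist added as 10-point dose response for 30 min at 37 °C. cAMP measured by HTRF (Cisbio Gs Dynamic kit); EC50 from sigmoidal fit.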

GLP-1R, sequence (P43220 24-463): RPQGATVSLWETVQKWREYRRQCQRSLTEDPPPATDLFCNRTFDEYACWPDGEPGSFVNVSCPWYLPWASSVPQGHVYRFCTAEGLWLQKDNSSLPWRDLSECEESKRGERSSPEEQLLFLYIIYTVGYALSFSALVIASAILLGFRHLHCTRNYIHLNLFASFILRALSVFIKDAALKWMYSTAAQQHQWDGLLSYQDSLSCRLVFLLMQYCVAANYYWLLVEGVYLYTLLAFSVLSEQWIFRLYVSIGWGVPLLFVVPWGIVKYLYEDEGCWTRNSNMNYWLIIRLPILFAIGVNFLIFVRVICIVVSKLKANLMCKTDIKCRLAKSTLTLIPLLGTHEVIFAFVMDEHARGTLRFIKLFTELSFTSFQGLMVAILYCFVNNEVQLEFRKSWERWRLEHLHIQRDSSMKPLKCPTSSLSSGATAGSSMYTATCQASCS

SMILES	EC50 [nM]
CC1(C)COC[C@H]1n1c(Cc2cc(F)c(-c3cccc(OCc4ccc(Cl)cc4F)n3)cc2F)nc2cc(Cl)c(C(=O)O)cc21 [Example 402, (S)-5-chloro-2-(4-(6-((4-chloro-2-fluorobenzyl)oxy)pyridin-2-yl)-2,5-difluorobenzyl)-1-(4,4-dimethyltetrahydrofuran-3-yl)-1H-benzo[d]imidazole-6-carboxylic acid]	0.561
CC1(C)COC[C@H]1n1c(Cc2cc(F)c(-c3ccc(F)c(OCc4ccc(-n5ccnn5)cc4F)n3)cc2F)nc2ccc(C(=O)O)cc21 [Example 163, (S)-2-(2,5-difluoro-4-(5-fluoro-6-((2-fluoro-4-(1H-1,2,3-triazol-1-yl)benzyl)oxy)pyridin-2-yl)benzyl)-1-(4,4-dimethyltetrahydrofuran-3-yl)-1H-benzo[d]imidazole-6-carboxylic Acid]	0.039
CC(=O)N1C[C@@H]2[C@H](n3c(Cc4cc(F)c(-c5cccc(OCc6ccc(C#N)cc6F)n5)cc4F)nc4ccc(C(=O)O)cc43)CO[C@@H]2C1 [Example 18, 1-((3S,3aR,6aS)-5-acetylhexahydro-2H-furo[2,3-c]pyrrol-3-yl)-2-(4-(6-((4-cyano-2-fluorobenzyl)oxy)pyridin-2-yl)-2,5-difluorobenzyl)-1H-benzo[d]imidazole-6-carboxylic Acid]	49.2
CC(C)(O)C#Cc1cc(C(=O)O)cc2c1nc(Cc1cc(F)c(-c3cccc(OCc4ccc(C#N)cc4F)n3)cc1F)n2C1COCC1(C)C (stereo not drawn) [Example 47]	0.78
CC1(C)COC[C@H]1n1c(Cc2c(F)cc(-c3ccc(F)c(OCc4ccc(Cl)cc4F)n3)c(F)c2F)nc2ccc(C(=O)O)cc21 [Example 335, (S)-2-(4-(6-((4-chloro-2-fluorobenzyl)oxy)-5-fluoropyridin-2-yl)-2,3,6-trifluorobenzyl)-1-(4,4-dimethyltetrahydrofuran-3-yl)-1H-benzo[d]imidazole-6-carboxylic acid]	0.306
CC1(C)COC[C@H]1n1c(Cc2cc(F)c(-c3ccnc(OCc4ccc(Cl)cc4F)n3)cc2F)nc2ccc(C(=O)O)cc21 [Example 121, (S)-2-(4-(2-((4-chloro-2-fluorobenzyl)oxy)pyrimidin-4-yl)-2,5-difluorobenzyl)-1-(4,4-dimethyltetrahydrofuran-3-yl)-1H-benzo[d]imidazole-6-carboxylic Acid]	0.083
CO[C@@H]1COC[C@@H]1n1c(Cc2cc(F)c(-c3cccc(OCc4ccc(C#N)cc4F)n3)cc2F)nc2ccc(C(=O)O)cc21 (single isomer, unassigned) [Example 275]	0.168
CC1(C)COC[C@H]1n1c(Cc2cc(F)c(-c3ccc(F)c(OCc4ccc(Cl)cc4)n3)cc2F)nc2c(Cl)cc(C(=O)O)cc21 [Example 441, (S)-4-chloro-2-(4-(6-((4-chlorobenzyl)oxy)-5-fluoropyridin-2-yl)-2,5-difluorobenzyl)-1-(4,4-dimethyltetrahydrofuran-3-yl)-1H-benzo[d]imidazole-6-carboxylic acid]	0.722
COCCn1c(Cc2cc(F)c(-c3cccc(OCc4ccc(C#N)cc4F)n3)cc2F)nc2c(-c3ccccn3)cc(C(=O)O)cc21 [Example 84]	1.34
COc1cc(-c2cnn(C)c2)ncc1COc1cccc(-c2cc(F)c(Cc3nc4ccc(C(=O)O)cc4n3C[C@@H](C)OC)cc2F)n1 [Example 91, (R)-2-(2,5-difluoro-4-(6-((4-methoxy-6-(1-methyl-1H-pyrazol-4-yl)pyridin-3-yl)methoxy)pyridin-2-yl)benzyl)-1-(2-methoxypropyl)-1H-benzo[d]imidazole-6-carboxylic Acid]	2.06
COCCn1c(Cc2cc(F)c(-c3cccc(OCc4ccc5nccn5c4)n3)cc2F)nc2ccc(C(=O)O)cc21 [Example 30, 2-(2,5-difluoro-4-(6-(imidazo[1,2-a]pyridin-6-ylmethoxy)pyridin-2-yl)benzyl)-1-(2-methoxyethyl)-1H-benzo[d]imidazole-6-carboxylic Acid]	49.9
CC1(C)COC[C@H]1n1c(Cc2cc(F)c(-c3ccnc(OCc4ccc(C(F)(F)F)cc4)n3)cc2F)nc2ccc(C(=O)O)cc21 [Example 537, (S)-2-(2,5-difluoro-4-(2-((4-(trifluoromethyl)benzyl)oxy)pyrimidin-4-yl)benzyl)-1-(4,4-dimethyltetrahydrofuran-3-yl)-1H-benzo[d]imidazole-6-carboxylic acid]	0.121
CC1(C)COC[C@H]1n1c(Cc2cc(F)c(-c3cccc(OCc4ccc(C#N)cc4F)n3)cc2Cl)nc2ccc(C(=O)O)cc21 [Example 257, (S)-2-(2-chloro-4-(6-((4-cyano-2-fluorobenzyl)oxy)pyridin-2-yl)-5-fluorobenzyl)-1-(4,4-dimethyltetrahydrofuran-3-yl)-1H-benzo[d]imidazole-6-carboxylic acid]	0.064
CC1(C)COC[C@H]1n1c(Cc2cc(F)c(-c3cccc(OCc4ccc(Cl)cc4)n3)cc2F)nc2c(F)cc(C(=O)O)cc21 [Example 367, (S)-2-(4-(6-((4-chlorobenzyl)oxy)pyridin-2-yl)-2,5-difluorobenzyl)-1-(4,4-dimethyltetrahydrofuran-3-yl)-4-fluoro-1H-benzo[d]imidazole-6-carboxylic acid]	0.274
CC1(C)COC[C@H]1n1c(Cc2cc(F)c(-c3cccc(OCc4ccc(Cl)c(F)c4F)n3)cc2F)nc2ccc(C(=O)O)cc21 [Example 488, (S)-2-(4-(6-((4-chloro-2,3-difluorobenzyl)oxy)pyridin-2-yl)-2,5-difluorobenzyl)-1-(4,4-dimethyltetrahydrofuran-3-yl)-1H-benzo[d]imidazole-6-carboxylic acid]	0.282
CO[C@@H](C)[C@H](C)n1c(Cc2cc(F)c(-c3cccc(OCc4ccc(Cl)cc4F)n3)cc2F)nc2ccc(C(=O)O)cc21 [Example 564, 2-(4-(6-((4-chloro-2-fluorobenzyl)oxy)pyridin-2-yl)-2,5-difluorobenzyl)-1-((2S,3S)-3-methoxybutan-2-yl)-1H-benzo[d]imidazole-6-carboxylic acid]	2.29
COC(=O)N1Cc2ccc(COc3cccc(-c4cc(F)c(Cc5nc6ccc(C(=O)O)cc6n5[C@@H]5COCC5(C)C)cc4F)n3)cc2C1 [Example 529, (S)-2-(2,5-difluoro-4-(6-((2-(methoxycarbonyl)isoindolin-5-yl)methoxy)pyridin-2-yl)benzyl)-1-(4,4-dimethyltetrahydrofuran-3-yl)-1H-benzo[d]imidazole-6-carboxylic acid]	0.598
COCCn1c(Cc2cc(F)c(-c3cccc(OCc4cnc(-c5cn(C)nn5)cn4)n3)cc2F)nc2ccc(C(=O)O)cc21 [Example 37, 2-(2,5-difluoro-4-(6-((5-(1-methyl-1H-1,2,3-triazol-4-yl)pyrazin-2-yl)methoxy)pyridin-2-yl)benzyl)-1-(2-methoxyethyl)-1H-benzo[d]imidazole-6-carboxylic Acid]	1.97
Cc1cc(Cc2nc3ccc(C(=O)O)cc3n2[C@@H]2COCC2(C)C)c(Cl)cc1-c1ccnc(OCc2ccc(Cl)cc2F)n1 [Example 318, (S)-2-(2-chloro-4-(2-((4-chloro-2-fluorobenzyl)oxy)pyrimidin-4-yl)-5-methylbenzyl)-1-(4,4-dimethyltetrahydrofuran-3-yl)-1H-benzo[d]imidazole-6-carboxylic acid]	0.745
CC1(C)COC[C@H]1n1c(Cn2cc(F)c(-c3cccc(OCc4ccc(C#N)cc4F)n3)cc2=O)nc2c(F)cc(C(=O)O)cc21 [Example 145, (S)-2-((6-((4-cyano-2-fluorobenzyl)oxy)-5′-fluoro-2′-oxo-[2,4′-bipyridin]-1′(2′H)-yl)methyl)-1-(4,4-dimethyltetrahydrofuran-3-yl)-4-fluoro-1H-benzo[d]imidazole-6-carboxylic Acid]	0.022
CC1(C)COC[C@H]1n1c(Cc2cc(F)c(-c3ccc(F)c(OCc4ccc(Cl)cc4)n3)cc2F)nc2ccc(C(=O)O)cc21 [Example 299, (S)-2-(4-(6-((4-chlorobenzyl)oxy)-5-fluoropyridin-2-yl)-2,5-difluorobenzyl)-1-(4,4-dimethyltetrahydrofuran-3-yl)-1H-benzo[d]imidazole-6-carboxylic acid]	0.342
COc1nc(Cl)ccc1COc1cccc(-c2cc(F)c(Cc3nc4c(F)cc(C(=O)O)cc4n3C3COCC3(C)C)cc2F)n1 (stereo not drawn) [Example 170, 2-(4-(6-((6-chloro-2-methoxypyridin-3-yl)methoxy)pyridin-2-yl)-2,5-difluorobenzyl)-1-(4,4-dimethyltetrahydrofuran-3-yl)-4-fluoro-1H-benzo[d]imidazole-6-carboxylic Acid]	0.227
CC1(C)COC[C@H]1n1c(Cc2c(F)cc(-c3nc(OCc4ccc(C#N)cc4)c(F)cc3F)cc2F)nc2ccc(C(=O)O)cc21 [Example 151, (S)-2-(4-(6-((4-cyanobenzyl)oxy)-3,5-difluoropyridin-2-yl)-2,6-difluorobenzyl)-1-(4,4-dimethyltetrahydrofuran-3-yl)-1H-benzo[d]imidazole-6-carboxylic Acid]	0.234
CC1(C)COC[C@@H]1n1c(Cc2cc(F)c(-c3cccc(OCc4ccc(C(F)F)cc4F)n3)cc2F)nc2c(F)cc(C(=O)O)cc21 (single isomer, unassigned) [Example 502B]	0.939
COCCn1c(Cc2cc(F)c(-c3cc(C(F)F)cc(OCc4ccc(C#N)cc4F)n3)cc2F)nc2ccc(C(=O)O)cc21 [Example 41]	4.88
CC1(C)COC[C@H]1n1c(Cc2cc(F)c(-c3cccc(OCc4ccc(C(F)(F)F)nn4)n3)cc2F)nc2ccc(C(=O)O)cc21 [Example 470, (S)-2-(2,5-difluoro-4-(6-((6-(trifluoromethyl)pyridazin-3-yl)methoxy)pyridin-2-yl)benzyl)-1-(4,4-dimethyltetrahydrofuran-3-yl)-1H-benzo[d]imidazole-6-carboxylic acid]	1.61
CC1(C)COC[C@@H]1n1c(Cc2ccc(-c3cccc(OCc4ccc(C#N)cc4F)n3)cc2F)nc2ccc(C(=O)O)cc21 (single isomer, unassigned) [Example 380]	0.096
